Numbers after ± are expanded uncertainties.
Test: xn = mol fraction of the nth substance listed
Details: Liquid, Vibrating tube method

CCCCCCCCCC [decane] + CCCCCC
mass density (342.8 K, 1000 kPa, x2 = 0.8991): 626.74 ± 0.28 kg/m3
mass density (342.8 K, 2000 kPa, x2 = 0.8991): 628.11 ± 0.29 kg/m3
mass density (342.8 K, 3000 kPa, x2 = 0.8991): 629.48 ± 0.3 kg/m3
mass density (342.8 K, 4000 kPa, x2 = 0.8991): 630.85 ± 0.31 kg/m3
mass density (342.8 K, 5000 kPa, x2 = 0.8991): 632.19 ± 0.32 kg/m3
mass density (342.8 K, 6000 kPa, x2 = 0.8991): 633.52 ± 0.32 kg/m3
mass density (342.8 K, 7000 kPa, x2 = 0.8991): 634.85 ± 0.33 kg/m3
mass density (342.8 K, 8000 kPa, x2 = 0.8991): 636.16 ± 0.34 kg/m3
mass density (342.8 K, 9000 kPa, x2 = 0.8991): 637.46 ± 0.35 kg/m3
mass density (342.8 K, 10000 kPa, x2 = 0.8991): 638.73 ± 0.36 kg/m3
mass density (342.8 K, 11000 kPa, x2 = 0.8991): 639.99 ± 0.37 kg/m3
mass density (342.8 K, 12000 kPa, x2 = 0.8991): 641.23 ± 0.38 kg/m3
mass density (342.8 K, 13000 kPa, x2 = 0.8991): 642.43 ± 0.39 kg/m3
mass density (342.8 K, 14000 kPa, x2 = 0.8991): 643.64 ± 0.4 kg/m3
mass density (342.8 K, 15000 kPa, x2 = 0.8991): 644.8 ± 0.41 kg/m3
mass density (342.8 K, 16000 kPa, x2 = 0.8991): 645.95 ± 0.42 kg/m3
mass density (342.8 K, 17000 kPa, x2 = 0.8991): 647.07 ± 0.43 kg/m3
mass density (342.8 K, 18000 kPa, x2 = 0.8991): 648.18 ± 0.44 kg/m3
mass density (342.8 K, 19000 kPa, x2 = 0.8991): 649.24 ± 0.45 kg/m3
mass density (342.8 K, 20000 kPa, x2 = 0.8991): 650.3 ± 0.46 kg/m3
mass density (342.8 K, 21000 kPa, x2 = 0.8991): 651.32 ± 0.47 kg/m3
mass density (342.8 K, 22000 kPa, x2 = 0.8991): 652.31 ± 0.48 kg/m3
mass density (342.8 K, 23000 kPa, x2 = 0.8991): 653.28 ± 0.49 kg/m3
mass density (342.8 K, 24000 kPa, x2 = 0.8991): 654.23 ± 0.51 kg/m3
mass density (342.8 K, 25000 kPa, x2 = 0.8991): 655.16 ± 0.52 kg/m3
mass density (343.05 K, 1000 kPa, x2 = 0.0456): 690.21 ± 0.26 kg/m3
mass density (343.05 K, 2000 kPa, x2 = 0.0456): 691.25 ± 0.26 kg/m3
mass density (343.05 K, 3000 kPa, x2 = 0.0456): 692.26 ± 0.27 kg/m3
mass density (343.05 K, 4000 kPa, x2 = 0.0456): 693.3 ± 0.28 kg/m3
mass density (343.05 K, 5000 kPa, x2 = 0.0456): 694.32 ± 0.28 kg/m3
mass density (343.05 K, 6000 kPa, x2 = 0.0456): 695.32 ± 0.29 kg/m3
mass density (343.05 K, 7000 kPa, x2 = 0.0456): 696.31 ± 0.3 kg/m3
mass density (343.05 K, 8000 kPa, x2 = 0.0456): 697.29 ± 0.31 kg/m3
mass density (343.05 K, 9000 kPa, x2 = 0.0456): 698.26 ± 0.31 kg/m3
mass density (343.05 K, 10000 kPa, x2 = 0.0456): 699.22 ± 0.32 kg/m3
mass density (343.05 K, 11000 kPa, x2 = 0.0456): 700.16 ± 0.33 kg/m3
mass density (343.05 K, 12000 kPa, x2 = 0.0456): 701.08 ± 0.34 kg/m3
mass density (343.05 K, 13000 kPa, x2 = 0.0456): 702 ± 0.34 kg/m3
mass density (343.05 K, 14000 kPa, x2 = 0.0456): 702.89 ± 0.35 kg/m3
mass density (343.05 K, 15000 kPa, x2 = 0.0456): 703.77 ± 0.36 kg/m3
mass density (343.05 K, 16000 kPa, x2 = 0.0456): 704.64 ± 0.37 kg/m3
mass density (343.05 K, 17000 kPa, x2 = 0.0456): 705.5 ± 0.38 kg/m3
mass density (343.05 K, 18000 kPa, x2 = 0.0456): 706.36 ± 0.38 kg/m3
mass density (343.05 K, 19000 kPa, x2 = 0.0456): 707.2 ± 0.39 kg/m3
mass density (343.05 K, 20000 kPa, x2 = 0.0456): 708.02 ± 0.4 kg/m3
mass density (343.05 K, 21000 kPa, x2 = 0.0456): 708.84 ± 0.41 kg/m3
mass density (343.05 K, 22000 kPa, x2 = 0.0456): 709.65 ± 0.42 kg/m3
mass density (343.05 K, 23000 kPa, x2 = 0.0456): 710.45 ± 0.43 kg/m3
mass density (343.05 K, 24000 kPa, x2 = 0.0456): 711.25 ± 0.43 kg/m3
mass density (343.05 K, 25000 kPa, x2 = 0.0456): 712.03 ± 0.44 kg/m3
mass density (343.06 K, 1000 kPa, x2 = 0.2185): 681.09 ± 0.26 kg/m3
mass density (343.06 K, 1000 kPa, x2 = 0.7524): 641.66 ± 0.28 kg/m3
mass density (343.06 K, 2000 kPa, x2 = 0.2185): 682.19 ± 0.27 kg/m3
mass density (343.06 K, 2000 kPa, x2 = 0.7524): 643.07 ± 0.28 kg/m3
mass density (343.06 K, 3000 kPa, x2 = 0.2185): 683.33 ± 0.27 kg/m3
mass density (343.06 K, 3000 kPa, x2 = 0.7524): 644.43 ± 0.29 kg/m3
mass density (343.06 K, 4000 kPa, x2 = 0.2185): 684.4 ± 0.28 kg/m3
mass density (343.06 K, 4000 kPa, x2 = 0.7524): 645.8 ± 0.3 kg/m3
mass density (343.06 K, 5000 kPa, x2 = 0.2185): 685.47 ± 0.29 kg/m3
mass density (343.06 K, 5000 kPa, x2 = 0.7524): 647.1 ± 0.31 kg/m3
mass density (343.06 K, 6000 kPa, x2 = 0.2185): 686.52 ± 0.3 kg/m3
mass density (343.06 K, 6000 kPa, x2 = 0.7524): 648.4 ± 0.32 kg/m3
mass density (343.06 K, 7000 kPa, x2 = 0.2185): 687.54 ± 0.3 kg/m3
mass density (343.06 K, 7000 kPa, x2 = 0.7524): 649.65 ± 0.33 kg/m3
mass density (343.06 K, 8000 kPa, x2 = 0.2185): 688.57 ± 0.31 kg/m3
mass density (343.06 K, 8000 kPa, x2 = 0.7524): 650.88 ± 0.34 kg/m3
mass density (343.06 K, 9000 kPa, x2 = 0.2185): 689.57 ± 0.32 kg/m3
mass density (343.06 K, 9000 kPa, x2 = 0.7524): 652.12 ± 0.34 kg/m3
mass density (343.06 K, 10000 kPa, x2 = 0.2185): 690.55 ± 0.33 kg/m3
mass density (343.06 K, 10000 kPa, x2 = 0.7524): 653.31 ± 0.35 kg/m3
mass density (343.06 K, 11000 kPa, x2 = 0.2185): 691.53 ± 0.34 kg/m3
mass density (343.06 K, 11000 kPa, x2 = 0.7524): 654.46 ± 0.36 kg/m3
mass density (343.06 K, 12000 kPa, x2 = 0.2185): 692.48 ± 0.34 kg/m3
mass density (343.06 K, 12000 kPa, x2 = 0.7524): 655.59 ± 0.37 kg/m3
mass density (343.06 K, 13000 kPa, x2 = 0.2185): 693.45 ± 0.35 kg/m3
mass density (343.06 K, 13000 kPa, x2 = 0.7524): 656.72 ± 0.38 kg/m3
mass density (343.06 K, 14000 kPa, x2 = 0.2185): 694.36 ± 0.36 kg/m3
mass density (343.06 K, 14000 kPa, x2 = 0.7524): 657.81 ± 0.39 kg/m3
mass density (343.06 K, 15000 kPa, x2 = 0.2185): 695.27 ± 0.37 kg/m3
mass density (343.06 K, 15000 kPa, x2 = 0.7524): 658.89 ± 0.4 kg/m3
mass density (343.06 K, 16000 kPa, x2 = 0.2185): 696.19 ± 0.38 kg/m3
mass density (343.06 K, 16000 kPa, x2 = 0.7524): 659.96 ± 0.41 kg/m3
mass density (343.06 K, 17000 kPa, x2 = 0.2185): 697.07 ± 0.39 kg/m3
mass density (343.06 K, 17000 kPa, x2 = 0.7524): 661 ± 0.42 kg/m3
mass density (343.06 K, 18000 kPa, x2 = 0.2185): 697.94 ± 0.39 kg/m3
mass density (343.06 K, 18000 kPa, x2 = 0.7524): 662.03 ± 0.43 kg/m3
mass density (343.06 K, 19000 kPa, x2 = 0.2185): 698.83 ± 0.4 kg/m3
mass density (343.06 K, 19000 kPa, x2 = 0.7524): 663.03 ± 0.44 kg/m3
mass density (343.06 K, 20000 kPa, x2 = 0.2185): 699.68 ± 0.41 kg/m3
mass density (343.06 K, 20000 kPa, x2 = 0.7524): 664.01 ± 0.45 kg/m3
mass density (343.06 K, 21000 kPa, x2 = 0.2185): 700.53 ± 0.42 kg/m3
mass density (343.06 K, 21000 kPa, x2 = 0.7524): 664.97 ± 0.46 kg/m3
mass density (343.06 K, 22000 kPa, x2 = 0.2185): 701.36 ± 0.43 kg/m3

Reference: the NIST ThermoML archive (doi:10.1021/je200721d)
